Laboratory results reported in article PMC6522510 (Nature Communications, 2019).
Where two headings read alike, the source gives them in different places.

Experiments:
Parameters in all cases: species or system AML cell lines (8); Primary HTS, single concentration about 10 uM, Cell Titer Glo viability; log10 luminescence, per cent inhibition relative to cycloheximide control
Conditions in all cases: 72 h, inhibitor
CHRF288-11 = test system: CHRF288-11
CMK = test system: CMK
CMS = test system: CMS
M07e = test system: M07e
ML-2 = test system: ML-2
MOLM-13 = test system: MOLM-13
MV4-11 = test system: MV4-11
U937 = test system: U937
[1] = relative to cycloheximide control, log10 luminescence

For `CCn1c(-c2nonc2N)nc2c(N3CCCC3)nccc21` [SJ000573261-1, DW100508-128A1], which CHRF288-11 %inh (CHRF288-11; [1]) is on record?
Its CHRF288-11 %inh is 2.981%.

What about the CMK %inh (CMK; [1]) of the same compound?
Its CMK %inh is 3.861%.

And the CMS %inh (CMS; [1])?
The CMS %inh was 5.321%.

And the M07e %inh (M07e; [1])?
The M07e %inh was 5.656%.

And the ML-2 %inh (ML-2; [1])?
The ML-2 %inh was 3.187%.

What about the MOLM-13 %inh (MOLM-13; [1]) of the same compound?
Its MOLM-13 %inh is 1.048%.

And the MV4-11 %inh (MV4-11; [1])?
The MV4-11 %inh was 6.029%.

What about the U937 %inh (U937; [1]) of the same compound?
Its U937 %inh is -1.967%.

Which CHRF288-11 %inh (CHRF288-11; [1]) does the source give for `Fc1cccc(COc2ccc(Nc3ncncc3C#Cc3ccccc3)cc2Cl)c1` [SJ000573262-1, U15872/50/1] here?
The CHRF288-11 %inh was -1.921%.

What about the CMK %inh (CMK; [1]) of the same compound?
The CMK %inh was -0.522%.

And the CMS %inh (CMS; [1])?
The CMS %inh was -2.059%.

And the M07e %inh (M07e; [1])?
Its M07e %inh is -0.005299%.

What about the ML-2 %inh (ML-2; [1]) of the same compound?
Its ML-2 %inh is 1.8%.

What about the MOLM-13 %inh (MOLM-13; [1]) of the same compound?
Its MOLM-13 %inh is -0.1156%.

And the MV4-11 %inh (MV4-11; [1])?
The MV4-11 %inh was 1.812%.

What about the U937 %inh (U937; [1]) of the same compound?
The U937 %inh was 1.725%.

`COc1cc(/C=N/Nc2ncnc3[nH]ncc23)ccc1O` [SJ000573263-1, U15117/8/1] was tested. Which CHRF288-11 %inh (CHRF288-11; [1]) did it give?
The CHRF288-11 %inh was 2.923%.

And the CMK %inh (CMK; [1])?
The CMK %inh was 1.246%.

And the CMS %inh (CMS; [1])?
Its CMS %inh is 3.056%.

And the M07e %inh (M07e; [1])?
The M07e %inh was 4.954%.

And the ML-2 %inh (ML-2; [1])?
The ML-2 %inh was 0.3724%.

What about the MOLM-13 %inh (MOLM-13; [1]) of the same compound?
The MOLM-13 %inh was 34.62%.

What about the MV4-11 %inh (MV4-11; [1]) of the same compound?
The MV4-11 %inh was 32.98%.

And the U937 %inh (U937; [1])?
Its U937 %inh is 2.504%.

`CCN1CCC(CC(=O)Nc2n[nH]c3nc(-c4cccs4)c(Br)cc23)CC1` [SJ000573264-1, AG201339-025C2] was tested. Which CHRF288-11 %inh (CHRF288-11; [1]) did it give?
Its CHRF288-11 %inh is 10.8%.

What about the CMK %inh (CMK; [1]) of the same compound?
The CMK %inh was 18.01%.

And the CMS %inh (CMS; [1])?
The CMS %inh was 7.013%.

What about the M07e %inh (M07e; [1]) of the same compound?
The M07e %inh was 7.209%.

What about the ML-2 %inh (ML-2; [1]) of the same compound?
Its ML-2 %inh is -1.837%.

And the MOLM-13 %inh (MOLM-13; [1])?
The MOLM-13 %inh was 8.584%.

What about the MV4-11 %inh (MV4-11; [1]) of the same compound?
Its MV4-11 %inh is 29.41%.

And the U937 %inh (U937; [1])?
Its U937 %inh is 1.142%.

How did the CHRF288-11 %inh (CHRF288-11; [1]) turn out when `CCOc1ccc2c(-c3ccnc(Nc4cccc(C(F)(F)F)c4)n3)cnn2n1` [SJ000573265-1, U17838/110/3] was run?
Its CHRF288-11 %inh is 2.566%.

What about the CMK %inh (CMK; [1]) of the same compound?
The CMK %inh was -2.107%.

And the CMS %inh (CMS; [1])?
Its CMS %inh is 0.8077%.

What about the M07e %inh (M07e; [1]) of the same compound?
The M07e %inh was 6.84%.

And the ML-2 %inh (ML-2; [1])?
The ML-2 %inh was 2.429%.

What about the MOLM-13 %inh (MOLM-13; [1]) of the same compound?
Its MOLM-13 %inh is 1.961%.

What about the MV4-11 %inh (MV4-11; [1]) of the same compound?
Its MV4-11 %inh is 2.829%.

And the U937 %inh (U937; [1])?
The U937 %inh was -3.226%.

With `COC(=O)Nc1nc2cc(Oc3ccc(NC(=O)Nc4cccc(Br)c4)cc3)ccc2[nH]1` [SJ000573266-1, T261/62/3] as the compound, how does the CHRF288-11 %inh (CHRF288-11; [1]) read?
Its CHRF288-11 %inh is 12.69%.

And the CMK %inh (CMK; [1])?
Its CMK %inh is 40.21%.

What about the CMS %inh (CMS; [1]) of the same compound?
Its CMS %inh is 26.73%.

And the M07e %inh (M07e; [1])?
Its M07e %inh is 12.78%.

What about the ML-2 %inh (ML-2; [1]) of the same compound?
Its ML-2 %inh is 3.598%.

What about the MOLM-13 %inh (MOLM-13; [1]) of the same compound?
Its MOLM-13 %inh is 76.65%.

What about the MV4-11 %inh (MV4-11; [1]) of the same compound?
The MV4-11 %inh was 65.99%.

What about the U937 %inh (U937; [1]) of the same compound?
Its U937 %inh is 79.03%.

How did the CHRF288-11 %inh (CHRF288-11; 10 µM) turn out when `COc1cc(/C=N/Nc2ncnc3c2cnn3C(C)C)ccc1O` [SJ000573267-1, T237/25/6] was run?
Its CHRF288-11 %inh is 29.61%.

And the CMK %inh (CMK; 10 µM)?
The CMK %inh was 41.95%.

And the CMS %inh (CMS; 10 µM)?
Its CMS %inh is 9.426%.

And the M07e %inh (M07e; 10 µM)?
The M07e %inh was 6.424%.

What about the ML-2 %inh (ML-2; 10 µM) of the same compound?
The ML-2 %inh was 8.895%.

And the MOLM-13 %inh (MOLM-13; 10 µM)?
Its MOLM-13 %inh is 52.9%.

What about the MV4-11 %inh (MV4-11; 10 µM) of the same compound?
The MV4-11 %inh was 40.62%.

And the U937 %inh (U937; 10 µM)?
Its U937 %inh is 8.888%.

Which results are given for `O=C1NC(=O)C(N2CCc3ccccc32)=C1c1ccc(Cl)cc1` [SJ000573268-1, DH97836-102A1]?
CHRF288-11 %inh (CHRF288-11; [1]): 52.52%; CMK %inh (CMK; [1]): 4.78%; CMS %inh (CMS; [1]): -3.009%; M07e %inh (M07e; [1]): -0.7324%; ML-2 %inh (ML-2; [1]): -0.2823%; MOLM-13 %inh (MOLM-13; [1]): 0.0382%; MV4-11 %inh (MV4-11; [1]): 95.01%; U937 %inh (U937; [1]): 0.6171%

`Cc1ccc(O)cc1Nc1ccnc2cc(-c3ccccn3)ccc12` [SJ000573269-1, R1902/28/3 | HC 206053 | GW440139B | | RTP SMTECH | SID124349934 | TCMDC-138201 | GW440139B |] was tested. Which CHRF288-11 %inh (CHRF288-11; [1]) did it give?
The CHRF288-11 %inh was 60.6%.

And the CMK %inh (CMK; [1])?
The CMK %inh was 50.01%.

What about the CMS %inh (CMS; [1]) of the same compound?
Its CMS %inh is 4.641%.

And the M07e %inh (M07e; [1])?
The M07e %inh was 10.95%.

And the ML-2 %inh (ML-2; [1])?
The ML-2 %inh was 1.439%.

What about the MOLM-13 %inh (MOLM-13; [1]) of the same compound?
Its MOLM-13 %inh is 20.29%.

What about the MV4-11 %inh (MV4-11; [1]) of the same compound?
The MV4-11 %inh was 3.761%.

What about the U937 %inh (U937; [1]) of the same compound?
Its U937 %inh is 14.95%.

Which CHRF288-11 %inh (CHRF288-11; [1]) does the source give for `CCOc1nccc2c1nc(-c1nonc1N)n2CC` [SJ000573270-1, DW100508-082A1] here?
The CHRF288-11 %inh was 53.12%.

And the CMK %inh (CMK; [1])?
Its CMK %inh is 45.39%.

And the CMS %inh (CMS; [1])?
The CMS %inh was -3.21%.

And the M07e %inh (M07e; [1])?
Its M07e %inh is -0.5841%.

What about the ML-2 %inh (ML-2; [1]) of the same compound?
The ML-2 %inh was 28.26%.

What about the MOLM-13 %inh (MOLM-13; [1]) of the same compound?
The MOLM-13 %inh was -1.635%.

And the MV4-11 %inh (MV4-11; [1])?
The MV4-11 %inh was -0.5042%.

What about the U937 %inh (U937; [1]) of the same compound?
The U937 %inh was -1.837%.

Which CHRF288-11 %inh (CHRF288-11; [1]) does the source give for `O=C(Nc1n[nH]c2nc(-c3ccco3)ccc12)C1CC1` [SJ000573271-1, VB100064-193A1] here?
The CHRF288-11 %inh was 7.062%.

What about the CMK %inh (CMK; [1]) of the same compound?
Its CMK %inh is -3.194%.

What about the CMS %inh (CMS; [1]) of the same compound?
The CMS %inh was 0.8699%.

And the M07e %inh (M07e; [1])?
The M07e %inh was -1.707%.

And the ML-2 %inh (ML-2; [1])?
Its ML-2 %inh is -0.1888%.

What about the MOLM-13 %inh (MOLM-13; [1]) of the same compound?
The MOLM-13 %inh was 1.202%.

And the MV4-11 %inh (MV4-11; [1])?
Its MV4-11 %inh is -0.2919%.

And the U937 %inh (U937; [1])?
The U937 %inh was -4.198%.
